For series [1], the system named is SARS-CoV-2. Description: Antiviral activity against SARS-CoV-2 infected in African green monkey Vero E6 cells assessed as inhibition of viral entry at 25 ug/ml measured after 24 hrs post infection by fluorescence microscopy. The series is classed as functional, organism-based. The settings on record: Severe acute respiratory syndrome coronavirus 2, dose 25.0 µg/ml.

Series [2] relates to SARS-CoV-2. Description: Antiviral activity against SARS-CoV-2 isolate USA-WA1/2020 strain infected in African green monkey Vero E6 cells assessed as inhibition of viral entry incubated for 1 hr prior to infection and measured after 48 hrs by Focus forming assay. In kind it is functional, organism-based. Conditions: Severe acute respiratory syndrome coronavirus 2, USA-WA1/2020, Vero C1008.

Another series has as its system Vero C1008. Description: Cytotoxicity against African green monkey Vero E6 cells by resazurin assay. The series is classed as toxicity, cell-based. Conditions: chlorocebus sabaeus.
A further series has as its system Caco-2. Description: Cytotoxicity against human Caco-2 cells by resazurin assay. The series is classed as toxicity, cell-based. (In general: Resazurin is reduced to fluorescent resorufin, in cell work by metabolically active cells.)
A further series deals with HEK-293T. Description: Cytotoxicity against human HEK293T cells overexpressing ACE2 by resazurin assay. The series is classed as toxicity, cell-based.

In ChEMBL document CHEMBL5046259, “Cannabinoids Block Cellular Entry of SARS-CoV-2 and the Emerging Variants” (J Nat Prod, 2022) one finds Activity and IC50 data, which are given here for two compounds.

≈ marks a conversion by molar mass, not a printed value. Calls of active or inactive are those of the source. No cut-off for these calls is given here.

As a reminder, the IC50 is the concentration that inhibits the measured activity by half.

Regarding `CCCCCc1cc(O)c(C/C=C(\C)CCC=C(C)C)c(O)c1C(=O)O` [CANNABIGEROLIC ACID], the result with SARS-CoV-2 [1] was Active. Besides, the IC50 in the series with SARS-CoV-2 [2] was 37 µg/mL (≈ 103 µM). Also, the Activity entry in the series with Vero C1008, in the series on Caco-2 and with HEK-293T was “Non-Toxic” each time.

With `C=C(C)[C@@H]1CCC(C)=C[C@H]1c1c(O)cc(CCCCC)c(C(=O)O)c1O` [CANNABIDIOLIC ACID], the result in the series with SARS-CoV-2 [1] was Active. Further, the IC50 in the series with SARS-CoV-2 [2] turned out to be 24 µg/mL (≈ 66.9 µM). The Activity result with Vero C1008, in the series with Caco-2 and in the series with HEK-293T was “Non-Toxic” each time.
